The source made the active and inactive calls. The calls are words filed in the database; no cut-off is given here.
Legend:
MCF7 = assay: Cytotoxicity against human MCF7 cells assessed as reduction in cell viability at 10 uM incubated for 72 hrs by MTT assay relative to control; format: functional
Quadruplex DNA [1] = assay: Effect on c-myc G-quadruplex DNA (unknown origin) configuration in water at 5 uM spectropolarimeter; format: ADME, nucleic-acid assay; details: buffer
Quadruplex DNA [2] = assay: Effect on c-myc G-quadruplex DNA (unknown origin) configuration in PBS buffer 40 mM K+ at 5 uM by spectropolarimeter; format: ADME, nucleic-acid assay
HeLa = assay: Cytotoxicity against human HeLa cells assessed as reduction in cell viability at 10 uM incubated for 72 hrs by MTT assay relative to control; format: functional
Quadruplex DNA [3] = assay: Binding affinity to c-myc G-quadruplex DNA (unknown origin) in PBS buffer 40 mM K+ at 5 uM by spectrofluorimetric analysis; format: nucleic-acid assay
HT-1080 = assay: Cytotoxicity against human HT-1080 cells assessed as reduction in cell viability at 10 uM incubated for 72 hrs by MTT assay relative to control; format: functional
[4] = Drug localization in human HeLa cells at 10 uM incubated for 4 hrs by MitoTracker Deep Red and Lyso-Tracker Red DND-99 staining based by confocal microscopy; format: ADME, cell-based
[5] = Drug localization in nucleus of human MCF7 cells at 10 uM incubated for 4 hrs in presence of urea by propidium iodide staining based by confocal microscopy; format: ADME, cell-based; details: mcf7, 4 h
[6] = Binding affinity to TBA DNA sequence (unknown origin) by spectrofluorimetric analysis
DNA = assay: Binding affinity to ds26 DNA sequence (unknown origin) by spectrofluorimetric analysis; format: nucleic-acid assay
[7] = Drug localization in nucleus of human HeLa cells at 10 uM incubated for 4 hrs by propidium iodide staining based by confocal microscopy; format: ADME
[8] = Drug localization in cytoplasm of human HeLa cells at 10 uM incubated for 4 hrs by propidium iodide staining based by confocal microscopy; format: ADME
[9] = Drug localization in nucleus of human HeLa cells at 10 uM incubated for 4 hrs in presence of urea by propidium iodide staining based by confocal microscopy; format: ADME
[10] = Drug localization in cytoplasm of human MCF7 cells at 10 uM incubated for 4 hrs by propidium iodide staining based by confocal microscopy; format: ADME, cell-based; details: mcf7, 4 h
[11] = Drug localization in nucleus of human MCF7 cells at 10 uM incubated for 4 hrs by propidium iodide staining based by confocal microscopy; format: ADME, cell-based; details: mcf7, 4 h
[12] = Binding affinity to dx12ab DNA sequence (unknown origin) by spectrofluorimetric analysis
Quadruplex DNA [13] = assay: Binding affinity to c-myc G-quadruplex DNA (unknown origin) in PBS buffer (40 mM K+, pH 7.4) by spectrofluorimetric analysis; format: nucleic-acid assay

Compound	inhibition at 10 µM (MCF7)	Activity (Quadruplex DNA [1])	Activity (Quadruplex DNA [2])	inhibition at 10 µM (HeLa)	Activity (Quadruplex DNA [3])	inhibition at 10 µM (HT-1080)	Drug uptake [4]	Drug uptake [5]	K [6]	K (DNA)	Drug uptake [7]	Drug uptake [8]	Drug uptake [9]	Drug uptake [10]	Drug uptake [11]	K [12]	K (Quadruplex DNA [13])
O=C1C=C(c2ccc3ccccc3c2)N2C=CC=CC12C(F)(F)F (stereo not given)	-11.9%	Not Active	Not Active	-1.3%	Active	2.9%	–	–	–	–	–	–	–	–	–	–	–
O=C1C=C(c2cccnc2)N2C=CC=CC12c1ccccn1 (stereo not given)	16.5%	Not Active	Not Active	3%	Active	30.3%	–	–	–	–	–	–	–	–	–	–	–
O=C1C=C(c2ccc3ccccc3c2)N2C=CC=CC12c1ccccn1 (stereo not given)	24.3%	Not Active	Not Active	11.1%	Active	30.4%	Active	Active	inactive	inactive	Active	Active	Active	Active	Active	inactive	–
O=C1C=C(c2ccccn2)N2C=CC=CC12c1ccccn1 (stereo not given)	7.9%	Not Active	Not Active	3.7%	Active	8.5%	–	–	–	–	–	–	–	–	–	–	–
O=C1C=C(c2ccccc2)N2C=CC=CC12C(F)(F)F (stereo not given)	18.7%	Not Active	Not Active	-4.7%	Active	15.9%	–	–	–	–	–	–	–	–	–	–	inactive
O=C1C=C(c2ccc([N+](=O)[O-])cc2)N2C=CC=CC12c1ccccn1 (stereo not given)	12.5%	Not Active	Not Active	2.9%	Active	-4.2%	–	–	–	–	–	–	–	–	–	–	inactive
O=C1C=C(c2ccncc2)N2C=CC=CC12c1ccccn1 (stereo not given)	19.3%	Not Active	Not Active	5.9%	Active	1.8%	–	–	–	–	–	–	–	–	–	–	–
COc1ccc(C2=CC(=O)C3(c4ccccn4)C=CC=CN23)cc1 (stereo not given)	0.6%	Not Active	Not Active	3.2%	Active	46.1%	–	–	–	–	–	–	–	–	–	–	–
O=C1C=C(c2ccc(Cl)cc2)N2C=CC=CC12c1ccccn1 (stereo not given)	4.7%	Not Active	Not Active	16.6%	Active	15.6%	–	–	–	–	–	–	–	–	–	–	–
O=c1[nH]cc(F)c(=O)[nH]1 [FLUOROURACIL]	41.9%	–	–	44%	–	65.3%	–	–	–	–	–	–	–	–	–	–	–
O=C1C=C(c2ccc(-c3ccccc3)cc2)N2C=CC=CC12c1ccccn1 (stereo not given)	14.3%	Not Active	Not Active	5.7%	Active	32.2%	–	–	–	–	–	–	–	–	–	–	–

Source: ChEMBL document CHEMBL4673286, “Selective recognition of DNA parallel G-quadruplexes by 3,8a-disubstituted indolizinones” (Bioorg Med Chem, 2021)
